Tests used:
[1] = tested on: Primary human bronchial epithelial cells from a ΔF508 homozygous CF donor (CF-HBE cells); assay: TECC24 recording of CFTR-mediated transepithelial chloride transport, AUC fold over benchmark VX-809 @10 μM; assay type: cell-based; conditions: 48 hours incubation, AUC of forskolin-stimulated IEQ
Outline: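 CF-HBE cells on inserts were treated with compound for 48 h at 36.5 °C, then recorded in current-clamp with benzamil 10 μM, forskolin 10 μM, and finally CFTR inhibitor-172 20 μM in pH 7.4 Hepes saline. Equivalent Cl− current AUC between forskolin and inhibitor addition is expressed as a ratio to VX-809 AUC: A <3, B 3–6, C 6–20.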

[2] = target: T1, Purified recombinant NBD1 (Homo sapiens, UniProt P13569); assay: Aggregation analysis using differential static light scattering (DSLS): thermal stability of NBD1; assay type: binding; conditions: NBD1 0.2 mg/ml; Tagg of compound well minus average Tagg of DMSO control wells
T1 construct: Purified recombinant NBD1 was produced using previously described methods; made in house
T1 sequence (P13569 423-646 limits assumed): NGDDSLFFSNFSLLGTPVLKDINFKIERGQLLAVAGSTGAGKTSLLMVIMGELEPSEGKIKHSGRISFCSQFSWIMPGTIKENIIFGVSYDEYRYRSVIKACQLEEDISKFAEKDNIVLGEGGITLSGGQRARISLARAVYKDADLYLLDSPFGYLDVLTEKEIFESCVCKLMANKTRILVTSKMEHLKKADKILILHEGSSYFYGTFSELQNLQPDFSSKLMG
Outline: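 Recombinant NBD1 at 0.2 mg/ml in Tris/NaCl/MgCl2 buffer with 2 mM ATP, 2 mM DTT, 1% glycerol, pH 7.6, was incubated with compound and heated at 1 °C/min to 70 °C while static light scattering was monitored. Tagg was taken from the curve inflection point and reported as ΔTagg relative to DMSO controls.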

SMILES	TECC (test agent AUC divided by VX-809 AUC) [1]	DSLS (ΔTagg) [2]
O=C(O)CCc1cccc(C2CCCNC(=O)CCc3c(c(F)cc4[nH]ccc34)Oc3ccc(F)c(c3)-c3ncc2[nH]3)c1 (centres unmarked) [Compound 8, 3-[3-(21,27-Difluoro-11-oxo-23-oxa-3,10,18,29-tetrazapentacyclo[22.3.1.12,5.014,22.015,19]nonacosa-1(28),2,4,14,16,19,21,24,26-nonaen-6-yl)phenyl]propanoic acid]	A (a TECC value less than 3 is marked “A”)	C (a value greater than 10 °C and less than or equal to 25 °C is marked “C”)
CC1(c2cccc(CCC(=O)O)c2)CC(=O)NCCCCCc2c(c(F)cc3[nH]ccc23)Oc2ccc(F)c(c2)-c2ncc1[nH]2 (centres unmarked) [Compound 26, 3-[3-(22,28-Difluoro-6-methyl-8-oxo-24-oxa-3,9,19,30-tetrazapentacyclo[23.3.1.12,5.015,23.016,20]triaconta-1(29),2,4,15,17,20,22,25,27-nonaen-6-yl)phenyl]propanoic acid]	B (a value between 3 and 6 is marked “B”)	C (a value greater than 10 °C and less than or equal to 25 °C is marked “C”)
CC1(c2ccccc2)CC(=O)NCCCCCc2c(c(F)cc3[nH]ccc23)Oc2ccc(F)c(c2)-c2ncc1[nH]2 (centres unmarked) [Compound 27, 22,28-Difluoro-6-methyl-6-phenyl-24-oxa-3,9,19,30-tetrazapentacyclo[23.3.1.12,5.015,23.016,20]triaconta-1(29),2,4,15,17,20,22,25,27-nonaen-8-one]	A (a TECC value less than 3 is marked “A”)	A (an ΔTagg value less than or equal to 5 °C is marked “A”)
CN1CC(C)(C)CCCC(c2cccc(CCC(=O)O)c2F)c2cnc([nH]2)-c2cc(ccc2F)Oc2c(F)cc3[nH]ccc3c2CCC1=O (centres unmarked) [Compound 28, 3-[3-(23,29-Difluoro-10,10,12-trimethyl-13-oxo-25-oxa-3,12,20,31-tetrazapentacyclo[24.3.1.12,5.016,24.017,21]hentriaconta-1(30),2,4,16,18,21,23,26,28-nonaen-6-yl)-2-fluoro-phenyl]propanoic acid]	A (a TECC value less than 3 is marked “A”)	C (a value greater than 10 °C and less than or equal to 25 °C is marked “C”)
CN1CCC(C)(C)CCC(C)(c2cccc(CCC(=O)O)c2)c2cnc([nH]2)-c2cc(ccc2F)Oc2c(F)cc3[nH]ccc3c2CCC1=O (centres unmarked) [Compound 29, 3-[3-(23,29-Difluoro-6,9,9,12-tetramethyl-13-oxo-25-oxa-3,12,20,31-tetrazapentacyclo[24.3.1.12,5.016,24.017,21]hentriaconta-1(30),2,4,16,18,21,23,26,28-nonaen-6-yl)phenyl]propanoic acid]	B (a value between 3 and 6 is marked “B”)	C (a value greater than 10 °C and less than or equal to 25 °C is marked “C”)
CN1CCC(C)(C)CCC(c2cccc(CCC(=O)O)c2F)c2cnc([nH]2)-c2cc(ccc2F)Oc2c(F)cc3[nH]ccc3c2CCC1=O (centres unmarked) [Compound 30, 3-[3-(23,29-Difluoro-9,9,12-trimethyl-13-oxo-25-oxa-3,12,20,31-tetrazapentacyclo[24.3.1.12,5.016,24.017,21]hentriaconta-1(30),2,4,16,18,21,23,26,28-nonaen-6-yl)-2-fluoro-phenyl]propanoic acid]	A (a TECC value less than 3 is marked “A”)	B (a value above 5 °C and less than or equal to 10 °C is marked “B”)
CN1CCC(C)(C)CCC(c2ccccc2F)c2cnc([nH]2)-c2cc(ccc2F)Oc2c(F)cc3[nH]ccc3c2CCC1=O (centres unmarked) [Compound 31, 23,29-difluoro-6-(2-fluorophenyl)-9,9,12-trimethyl-25-oxa-3,12,20,31-tetrazapentacyclo[24.3.1.12,5.016,24.017,21]hentriaconta-1(30),2,4,16,18,21,23,26,28-nonaen-13-one]	A (a TECC value less than 3 is marked “A”)	A (an ΔTagg value less than or equal to 5 °C is marked “A”)
CN1CC(C)(C)CCC(C)(c2cccc(CCC(=O)O)c2)c2cnc([nH]2)-c2cc(ccc2F)Oc2c(F)cc3[nH]ccc3c2CCC1=O (centres unmarked) [Compound 33, 3-[3-(22,28-Difluoro-6,9,9,11-tetramethyl-12-oxo-24-oxa-3,11,19,30-tetrazapentacyclo[23.3.1.12,5.015,23.016,20]triaconta-1(29),2,4,15,17,20,22,25,27-nonaen-6-yl)phenyl]propanoic acid]	A (a TECC value less than 3 is marked “A”)	B (a value above 5 °C and less than or equal to 10 °C is marked “B”)
CN1CC2(CCCC(C)(c3cccc(CCC(=O)O)c3)c3cnc([nH]3)-c3cc(ccc3F)Oc3c(F)cc4[nH]ccc4c3CCC1=O)CC2 (centres unmarked) [Compound 34, 3-[3-(23,29-Difluoro-6,12-dimethyl-13-oxo-spiro[25-oxa-3,12,20,31-tetrazapentacyclo[24.3.1.12,5.016,24.017,21]hentriaconta-1(30),2,4,16,18,21,23,26,28-nonaene-10,1′-cyclopropane]-6-yl)phenyl]propanoic acid]	A (a TECC value less than 3 is marked “A”)	C (a value greater than 10 °C and less than or equal to 25 °C is marked “C”)
CN1CC2(CCCC(C)(c3ccccc3)c3cnc([nH]3)-c3cc(ccc3F)Oc3c(F)cc4[nH]ccc4c3CCC1=O)CC2 (centres unmarked) [Compound 35, 23,29-Difluoro-6,12-dimethyl-6-phenyl-spiro[25-oxa-3,12,20,31-tetrazapentacyclo[24.3.1.12,5.016,24.017,21]hentriaconta-1(30),2,4,16,18,21,23,26,28-nonaene-10,1′-cyclopropane]-13-one]	A (a TECC value less than 3 is marked “A”)	A (an ΔTagg value less than or equal to 5 °C is marked “A”)
CC1(c2cccc(CCC(=O)O)c2)CCCC2(CC2)CNC(=O)CCc2c(c(F)cc3[nH]ccc23)Oc2ccc(F)c(c2)-c2ncc1[nH]2 (centres unmarked) [Compound 36, 3-[3-(23,29-Difluoro-6-methyl-13-oxo-spiro[25-oxa-3,12,20,31-tetrazapentacyclo[24.3.1.12,5.016,24.017,21]hentriaconta-1(30),2,4,16,18,21,23,26,28-nonaene-10,1′-cyclopropane]-6-yl)phenyl]propanoic acid]	B (a value between 3 and 6 is marked “B”)	C (a value greater than 10 °C and less than or equal to 25 °C is marked “C”)
CC1(c2ccccc2)CCCC2(CC2)CNC(=O)CCc2c(c(F)cc3[nH]ccc23)Oc2ccc(F)c(c2)-c2ncc1[nH]2 (centres unmarked) [Compound 37, 23,29-Difluoro-6-methyl-6-phenyl-spiro[25-oxa-3,12,20,31-tetrazapentacyclo[24.3.1.12,5.016,24.017,21]hentriaconta-1(30),2,4,16,18,21,23,26,28-nonaene-10,1′-cyclopropane]-13-one]	A (a TECC value less than 3 is marked “A”)	A (an ΔTagg value less than or equal to 5 °C is marked “A”)
CN1CC(C)(C)CCCC(c2cccc(CCC(=O)O)c2)n2ccc(n2)-c2cc(ccc2F)Oc2c(F)cc3[nH]ccc3c2CCC1=O (centres unmarked) [Compound 38, 3-[3-(23,29-difluoro-10,10,12-trimethyl-13-oxo-25-oxa-5,12,20,31-tetrazapentacyclo[24.3.1.12,5.016,24.017,21]hentriaconta-1(30),2(31),3,16,18,21,23,26,28-nonaen-6-yl)phenyl]propanoic acid]	A (a TECC value less than 3 is marked “A”)	A (an ΔTagg value less than or equal to 5 °C is marked “A”)
CN1CC(C)(C)CCCC(c2ccccc2)n2ccc(n2)-c2cc(ccc2F)Oc2c(F)cc3[nH]ccc3c2CCC1=O (centres unmarked) [Compound 39, 23,29-difluoro-10,10,12-trimethyl-6-phenyl-25-oxa-5,12,20,31-tetrazapentacyclo[24.3.1.12,5.016,24.017,21]hentriaconta-1(30),2(31),3,16,18,21,23,26,28-nonaen-13-one]	A (a TECC value less than 3 is marked “A”)	A (an ΔTagg value less than or equal to 5 °C is marked “A”)
CN1CC(C)(C)CCCC(c2cccc(CCC(=O)O)c2)c2cnc([nH]2)-c2cc(ccc2F)Oc2c(F)cc3[nH]ccc3c2CCC1=O (centres unmarked) [Compound 41, 3-[3-(23,29-Difluoro-10,10,12-trimethyl-13-oxo-25-oxa-3,12,20,31-tetrazapentacyclo[24.3.1.12,5.016,24.017,21]hentriaconta-1(30),2,4,16,18,21,23,26,28-nonaen-6-yl)phenyl]propanoic acid]	B (a value between 3 and 6 is marked “B”)	B (a value above 5 °C and less than or equal to 10 °C is marked “B”)
CN1CC(C)(C)OCCC(C)(c2ccccc2)c2cnc([nH]2)-c2cc(ccc2F)Oc2c(F)cc3[nH]ccc3c2CCC1=O (centres unmarked) [Compound 43, 23,29-Difluoro-6,10,10,12-tetramethyl-6-phenyl-9,25-dioxa-3,12,20,31-tetrazapentacyclo[24.3.1.12,5.016,24.017,21]hentriaconta-1(30),2,4,16,18,21,23,26,28-nonaen-13-one]	A (a TECC value less than 3 is marked “A”)	A (an ΔTagg value less than or equal to 5 °C is marked “A”)

Reference: patent publication US20250197420A1, “MACROCYCLIC COMPOUNDS, COMPOSITIONS, AND METHODS OF USING THEREOF” (Sionna Therapeutics Inc., priority 2022, published 2025)
